Source: patent publication US8134015B2, “Compound inhibiting in vivo phosphorous transport and medicine containing the same” (Kyowa Hakko Kirin Co., Ltd., priority 2003, dated 2012)

Biological target: T1, rat NaPi-2b (Rattus norvegicus, UniProt Q9JJ09)
T1 construct: expressed in transfected cells; host or cells: Xenopus oocytes injected with cRNA
T1 sequence (Q9JJ09 1-695): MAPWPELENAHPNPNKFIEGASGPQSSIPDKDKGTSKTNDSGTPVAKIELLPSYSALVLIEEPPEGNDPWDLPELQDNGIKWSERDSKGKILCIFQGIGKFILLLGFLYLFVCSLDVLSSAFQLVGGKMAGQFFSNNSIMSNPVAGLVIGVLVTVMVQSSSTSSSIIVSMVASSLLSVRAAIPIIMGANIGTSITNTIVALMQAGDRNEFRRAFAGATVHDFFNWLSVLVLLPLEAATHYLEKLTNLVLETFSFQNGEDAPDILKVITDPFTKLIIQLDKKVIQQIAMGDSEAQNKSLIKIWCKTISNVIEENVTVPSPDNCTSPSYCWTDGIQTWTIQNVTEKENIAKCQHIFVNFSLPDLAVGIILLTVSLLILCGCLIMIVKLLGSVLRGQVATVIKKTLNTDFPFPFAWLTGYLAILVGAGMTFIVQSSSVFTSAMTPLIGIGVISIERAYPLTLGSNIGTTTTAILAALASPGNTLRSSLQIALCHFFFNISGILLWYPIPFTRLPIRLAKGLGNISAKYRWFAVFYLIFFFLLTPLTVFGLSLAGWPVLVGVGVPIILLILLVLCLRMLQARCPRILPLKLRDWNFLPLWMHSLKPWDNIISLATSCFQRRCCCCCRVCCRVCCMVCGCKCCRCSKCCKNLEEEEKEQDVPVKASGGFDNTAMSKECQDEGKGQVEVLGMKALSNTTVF
Assay: Sodium-dependent phosphate uptake of Xenopus oocytes which expressed NaPi-2b (32P)
Assay type: cell-based
Conditions: for IC50: Xenopus oocytes expressing rat NaPi-2b, 32P radioactive phosphorus, read-out: IC50 (phosphate uptake inhibitory activity); for inhibition at 300 µM: phosphate uptake, oocytes expressing rat NaPi-2b, determined from inhibition curve
Procedure, shortened: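 Oocytes injected with rat NaPi-2b cRNA, cultured 2 d, then 32P uptake measured with compound. Values: % inhibition at 300 and 100 μM, both from one inhibition curve.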

Row | SMILES | IC50 [µM] | inhibition at 300 µM [%]
1 | CCN(CCO)Cc1ccc(C(=O)Nc2ccc(Cl)cc2C(=O)N/N=C/c2ccc(F)cc2)cc1 [Compound 433, N-[4-Chloro-2-(4-fluoro-benzylidene-hydrazinocarbonyl)-phenyl]-4-{[ethyl-(2-hydroxy-ethyl)-amino]-methyl}-benzamide] | 14.3 | 
2 | O=C(Nc1ccccc1C(=O)N/N=C/c1cccc(F)c1)c1cccc(F)c1 [Compound 81, 3-Fluoro-N-[2-(3-fluoro-benzylidene-hydrazinocarbonyl)-phenyl]-benzamide] | 5.65 | 
3 | Cc1ccc(/C=N/NC(=O)c2c(NC(=O)c3cccc(CN4CCC(CO)CC4)c3)sc3c2CCC3)cc1C [Compound 816, N-[3-(3,4-Dimethyl-benzylidene-hydrazinocarbonyl)-5,6-dihydro-4H-cyclopenta[b]thiophen-2-yl]-3-(4-hydroxymethyl-piperidin-1-ylmethyl)-benzamide] | 14.8 | 
4 | O=C(Nc1ccccc1C(=O)N/N=C/c1ccc(F)cc1)c1ccc(F)cc1 [Compound 77, 4-Fluoro-N-[2-(4-fluoro-benzylidene-hydrazinocarbonyl)-phenyl]-benzamide] | 3.01 | 
5 | CC(O)CN(Cc1cccc(C(=O)Nc2cscc2C(=O)N/N=C/c2ccc(Cl)c(C(F)(F)F)c2)c1)CC(C)O (stereo not shown) [Compound 978, 3-{[Bis-(2-hydroxy-propyl)-amino]-methyl}-N-[4-(4-chloro-3-trifluoromethyl-benzylidene-hydrazinocarbonyl)-thiophen-3-yl]-benzamide] |  | 74.1
6 | Cc1ccc(/C=N/NC(=O)c2cc(OCCCCF)ccc2NC(=O)c2cccc(CSCCO)c2)cc1C [Compound 1053, N-[2-(3,4-Dimethyl-benzylidene-hydrazinocarbonyl)-4-(4-fluoro-butoxy)-phenyl]-3-(2-hydroxy-ethylsulfanylmethyl)-benzamide] | < 1 | 
7 | COc1ccc(C(=O)Nc2ccccc2C(=O)N/N=C/c2cccnc2)cc1 [Compound 112, 4-Methoxy-N-[2-(pyridin-3-ylmethylene-hydrazinocarbonyl)-phenyl]-benzamide] | 42 | 
8 | O=C(Nc1ccc(Br)cc1C(=O)N/N=C/c1ccc(F)cc1)c1ccc(CN2CCN(CC(=O)N3CCOCC3)CC2)cc1 [Compound 730, N-[4-Bromo-2-(4-fluoro-benzylidene-hydrazinocarbonyl)-phenyl]-4-[4-(2-morpholin-4-yl-2-oxo-ethyl)-piperazin-1-ylmethyl]-benzamide] | 15.7 | 
9 | Cc1ccc(/C=N/NC(=O)c2cc(Br)ccc2NC(=O)c2ccc(CSc3ccncc3)cc2)cc1C [Compound 259, N-[4-Bromo-2-(3,4-dimethyl-benzylidene-hydrazinocarbonyl)-phenyl]-4-(pyridin-4-ylsulfanylmethyl)-benzamide] | < 3 | 
10 | O=C(Nc1ccccc1C(=O)N/N=C/c1cccc(Cl)c1)c1cccc(OC(F)(F)F)c1 [Compound 122] | < 3 | 
11 | O=C(Nc1ccc(Br)cc1C(=O)N/N=C/c1cccc(F)c1)c1ccc(CN2CCN(c3ccccn3)CC2)cc1 [Compound 775, N-[4-Bromo-2-(3-fluoro-benzylidene-hydrazinocarbonyl)-phenyl]-4-(4-pyridin-2-yl-piperazin-1-ylmethyl)-benzamide] |  | 44.6
12 | Cn1cccc1/C=N/NC(=O)c1cc(Cl)ccc1NC(=O)c1cccnc1 [Compound 212, N-[4-Chloro-2-(1-methyl-1H-pyrrol-2-ylmethylene-hydrazinocarbonyl)-phenyl]-nicotinamide] | 71.3 | 
13 | O=C(Nc1ccc(Br)cc1C(=O)N/N=C/c1ccc(F)cc1)c1cccs1 [Compound 158, Thiophene-2-carboxylic acid [4-bromo-2-(4-fluoro-benzylidene-hydrazinocarbonyl)-phenyl]-amide] | 3.28 | 
14 | Cc1cccc(/C=N/NC(=O)c2cc(Cl)ccc2NC(=O)c2cccnc2)c1 [Compound 186, N-[4-Chloro-2-(3-methyl-benzylidene-hydrazinocarbonyl)-phenyl]-nicotinamide] | 10.1 | 
15 | COc1ccc(/C=N/NC(=O)c2cc(Cl)ccc2NC(=O)c2cccc(CSc3nnnn3CCN(C)C)c2)cc1 [Compound 469, N-[4-Chloro-2-(4-methoxy-benzylidene-hydrazinocarbonyl)-phenyl]-3-[1-(2-dimethylamino-ethyl)-1H-tetrazol-5-ylsulfanylmethyl]-benzamide] | 33.2 | 
16 | COc1ccc(C(=O)Nc2ccc(Br)cc2C(=O)NNCc2ccc(C)cc2)cc1OC [Compound 367, N-{4-Bromo-2-[N′-(4-methyl-benzyl)-hydrazinocarbonyl]-phenyl}-3,4-dimethoxy-benzamide] | 6.88 | 
17 | COc1ccc(/C=N/NC(=O)c2c(C)csc2NC(=O)c2cccc(CN3CCC(O)CC3)c2)cc1 [Compound 598, 3-(4-Hydroxy-piperidin-1-ylmethyl)-N-[3-(4-methoxy-benzylidene-hydrazinocarbonyl)-4-methyl-thiophen-2-yl]-benzamide] | 53 | 

Further lines, results first:

Row | IC50 [µM] | inhibition at 300 µM [%] | SMILES
18 | < 3 |  | O=C(Nc1sc2c(c1C(=O)N/N=C/c1ccc(F)cc1)CCCC2)c1cccc(CN2CCN(CCO)CC2)c1 [Compound 623, N-[3-(4-Fluoro-benzylidene-hydrazinocarbonyl)-4,5,6,7-tetrahydro-benzo[b]thiophen-2-yl]-3-[4-(2-hydroxy-ethyl)-piperazin-1-ylmethyl]-benzamide]
19 | 1.11 |  | COc1cc(OC)cc(C(=O)Nc2ccccc2C(=O)N/N=C/c2ccc(Cl)c(C(F)(F)F)c2)c1 [Compound 89, N-[2-(4-Chloro-3-trifluoromethyl-benzylidene-hydrazinocarbonyl)-phenyl]-3,5-dimethoxy-benzamide]
20 | < 0.3 |  | COc1ccc(C(=O)Nc2ccc(I)cc2C(=O)N/N=C/c2ccc(C)c(C)c2)cc1OC [Compound 208, N-[2-(3,4-Dimethyl-benzylidene-hydrazinocarbonyl)-4-iodo-phenyl]-3,4-dimethoxy-benzamide]
21 | 1.15 |  | CCN(CCO)Cc1cccc(C(=O)Nc2ccc(Cl)cc2C(=O)N/N=C/c2cccc(F)c2)c1 [Compound 422, N-[4-Chloro-2-(3-fluoro-benzylidene-hydrazinocarbonyl)-phenyl]-3-{[ethyl-(2-hydroxy-ethyl)-amino]-methyl}-benzamide]
22 | 0.39 |  | O=C(Nc1ccc(Br)cc1C(=O)N/N=C/c1ccc(Cl)c(C(F)(F)F)c1)c1cccc(CSc2ccncc2)c1 [Compound 200, N-[4-Bromo-2-(4-chloro-3-trifluoromethyl-benzylidene-hydrazinocarbonyl)-phenyl]-3-(pyridin-4-ylsulfanylmethyl)-benzamide]
23 | 1.92 |  | O=C(Nc1ccc(N2CCCCC2)cc1C(=O)N/N=C/c1ccc(F)cc1)c1cccc(CN2CCN(CCO)CC2)c1 [Compound 866, N-[2-(4-Fluoro-benzylidene-hydrazinocarbonyl)-4-piperidin-1-yl-phenyl]-3-[4-(2-hydroxy-ethyl)-piperazin-1-ylmethyl]-benzamide]
24 | 0.95 |  | CN(CCO)Cc1cccc(C(=O)Nc2ccc(Cl)cc2C(=O)N/N=C/c2cccc(F)c2)c1 [Compound 394, N-[4-Chloro-2-(3-fluoro-benzylidene-hydrazinocarbonyl)-phenyl]-3-{[(2-hydroxy-ethyl)-methyl-amino]-methyl}-benzamide]
25 | 0.16 |  | O=C(Nc1ccc(Br)cc1C(=O)N/N=C/c1ccc(Cl)c(C(F)(F)F)c1)c1ccc(CSCCCO)cc1 [Compound 278, N-[4-Bromo-2-(4-chloro-3-trifluoromethyl-benzylidene-hydrazinocarbonyl)-phenyl]-4-(3-hydroxy-propylsulfanylmethyl)-benzamide]
